System: CF-1 male albino mice (MES-induced seizure)
Assay: Maximal Electroshock Test (MES), anticonvulsant activity
Format: in vivo
Details: for MES @ 300 mpk: (number of mice with full body tonic extension prevented)/(total number of mice tested): 300 mpk oral
Procedure: Anticonvulsant activity was determined using the MES test, run according to the procedure described in detail below. Swinyard E A, Woodhead J H, White H S, Franklin M R. Experimental selection, quantification, and evaluation of anticonvulsants. In Levy R H, et al., eds. Antiepileptic Drugs. 3rd ed. New York: Raven Press, 1989:85-102
CF-1 male albino mice (25-35 g) were fasted for 16 hours before testing. Mice were randomly selected into control and test groups, with the animals dosed with vehicle or test compound, at varying concentrations, respectively. On the study date, at 30 minutes prior to shock, the mice were orally dosed with vehicle (0.5% methylcellulose) or test compound (100-300 mg/kg). Seizures were induced by trans-corneal electric shock using a 60-Hz alternating current, 50 mA, delivered for 0.2 sec. The mice in the test groups were subjected to electrical stimulus at time intervals between 15 minutes and 4 hours following administration of test compound. […] The test was complete when the entire course of the convulsion has been observed (typically, less than 1 minute after electrical stimulation), and the mice were then immediately euthanized by carbon dioxide inhalation.
Abolition of the full body tonic extensor component of the seizure was taken as the endpoint of the test. […] The ED50 value of the test compound (calculated when appropriate) was the calculated dose required to block the hind limb tonic-extensor component of the MES-induced seizure in 50% of the rodents tested. A probit analysis was used to calculate the ED50 and 95% fiducial limits (FL).
Representative compounds of the present invention were tested according to the procedure described above, with results as listed in Table 3 below. Results are listed as (number of mice with full body tonic extension prevented)/(total number of mice tested) (@ a given time).

[1] = 100 mpk oral, 0.5 h after dosing

NS(=O)(=O)NCc1csc2ccc(Br)cc12 [Compound 15, N-[(5-bromobenzo[b]thien-3-yl)methyl]-sulfamide]
MES @ 300 mpk: (number of mice with full body tonic extension prevented)/(total number of mice tested) (0.5 hr after dosing): 0/3 (0.5 hr) | MES @ 300 mpk: (number of mice with full body tonic extension prevented)/(total number of mice tested) (2 hr after dosing): 0/3 (2 hr) | MES @ 300 mpk: (number of mice with full body tonic extension prevented)/(total number of mice tested) (4 hr after dosing): 1/3 (4 hr)

Cn1cc(CNS(N)(=O)=O)c2ccccc21 [Compound 7, N-[(1-methyl-1H-indol-3-yl)methyl]-sulfamide]
MES @ 100 mpk (result in words) (100 mpk oral, time not stated): inactive | MES @ 300 mpk: (number of mice with full body tonic extension prevented)/(total number of mice tested) (0.5 hr after dosing): 5/5 (0.5 hr) | MES @ 300 mpk: (number of mice with full body tonic extension prevented)/(total number of mice tested) (2 hr after dosing): 0/5 (2 hr) | MES @ 300 mpk: (number of mice with full body tonic extension prevented)/(total number of mice tested) (4 hr after dosing): 0/5 (4 hr)

Cc1oc2ccccc2c1CNS(N)(=O)=O [Compound 13, N-[(2-methyl-3-benzofuranyl)methyl]-sulfamide]
MES @ 100 mpk: (number of mice with full body tonic extension prevented)/(total number of mice tested) [1]: 4/5 (0.5 h) | MES @ 100 mpk: (number of mice with full body tonic extension prevented)/(total number of mice tested) (100 mpk oral, 2 h after dosing): 0/5 (2 h) | MES @ 100 mpk: (number of mice with full body tonic extension prevented)/(total number of mice tested) (100 mpk oral, 4 h after dosing): 0/5 (4 h)

NS(=O)(=O)NCc1csc2cccc(Br)c12 [Compound 17, N-[(4-bromobenzo[b]thien-3-yl)methyl]-sulfamide]
MES @ 300 mpk: (number of mice with full body tonic extension prevented)/(total number of mice tested) (0.5 hr after dosing): 0/3 (0.5 hr) | MES @ 300 mpk: (number of mice with full body tonic extension prevented)/(total number of mice tested) (2 hr after dosing): 0/3 (2 hr) | MES @ 300 mpk: (number of mice with full body tonic extension prevented)/(total number of mice tested) (4 hr after dosing): 1/3 (4 hr)

NS(=O)(=O)NCc1csc2ccccc12 [Compound 1, N-(benzo[b]thien-3-ylmethyl)-sulfamide]
MES @ 100 mpk: (number of mice with full body tonic extension prevented)/(total number of mice tested) [1]: 1/5 (0.5 h) | MES @ 100 mpk: (number of mice with full body tonic extension prevented)/(total number of mice tested) (100 mpk oral, 2 h after dosing): 3/5 (2 h) | MES @ 100 mpk: (number of mice with full body tonic extension prevented)/(total number of mice tested) (100 mpk oral, 4 h after dosing): 2/5 (4 h)

NS(=O)(=O)NCc1csc2c(F)cccc12 [Compound 18, N-[(7-fluorobenzo[b]thien-3-yl)methyl]-sulfamide]
MES @ 300 mpk: (number of mice with full body tonic extension prevented)/(total number of mice tested) (0.5 hr after dosing): 0/3 (0.5 hr) | MES @ 300 mpk: (number of mice with full body tonic extension prevented)/(total number of mice tested) (2 hr after dosing): 2/3 (2 hr) | MES @ 300 mpk: (number of mice with full body tonic extension prevented)/(total number of mice tested) (4 hr after dosing): 0/3 (4 hr)

Reference: US8283478B2, “Process for preparation of sulfamide derivatives” (Janssen Pharmaceutica NV, priority 2005, dated 2012)
